Test results taken from US20250311727A1, “SUBSTITUTED 2-AMINOAZINES AND SALTS THEREOF, AND USE THEREOF AS HERBICIDAL ACTIVE SUBSTANCES” (BAYER AKTIENGESELLSCHAFT, priority 2022, published 2025).

Assays:
Format in all cases: in vivo
Kochia scoparia [1] = experiment: Post-emergence herbicidal efficacy at 320 g/ha, KCHSC; conditions: rated visually after about 3 weeks vs untreated controls, 100% = plants have died
Excerpt: (§1) Unwanted plants/weeds: • ABUTH: Abutilon theophrasti • ALOMY: Alopecurus myosuroides • AMARE: Amaranthus retroflexus • DIGSA: Digitaria sanguinalis • ECHCG: Echinochloa crus-galli • KCHSC: Kochia scoparia • LOLRI: Lolium rigidum • MATIN: Matricaria inodora • POAAN: Poa annua • POLCO: Polygonum convolvulus • SETVI: Setaria viridis • STEME: Stellaria media • VERPE: Veronica persica • VIOTR: Viola tricolor A. Post-Emergence Herbicidal Efficacy at 320 g/ha
(§2) Seeds of mono- and dicotyledonous weed plants were placed in plastic pots in sandy loam soil (doubly sown with in each case one species of mono- or dicotyledonous weed plants per pot), covered with soil and cultivated in a greenhouse under controlled growth conditions. 2 to 3 weeks after sowing, the test plants were treated at the one-leaf stage. The compounds of the invention, formulated in the form of wettable powders (WP) or as emulsion concentrates (EC), were applied to the green parts of the plants as aqueous suspension or emulsion with addition of 0.5% additive at a water application rate equivalent to 600 litres per hectare. After the test plants had been kept in the greenhouse under optimum growth conditions for about 3 weeks, the activity of the preparations was rated visually in comparison to untreated controls.
(§3) For example, 100% activity=the plants have died, 0% activity=like control plants.
(§4) Tables A1 to A10 below show the effects of selected compounds of the general formula (I) according to Table 1 on various harmful plants and at an application rate corresponding to 320 g/ha, which were obtained by the trial procedure specified above.

Amaranthus retroflexus [2] = experiment: Post-emergence herbicidal efficacy at 320 g/ha, AMARE; conditions: rated visually after about 3 weeks vs untreated controls, 100% = plants have died
Excerpt: as §1, §2, §3, §4

Amaranthus retroflexus [3] = experiment: Post-emergence herbicidal efficacy at 80 g/ha, AMARE; conditions: rated visually after about 3 weeks vs untreated controls, 100% = plants have died
Excerpt: as §1
(§5) Seeds of monocotyledonous and dicotyledonous weeds and crop plants were placed in sandy loam in plastic or organic planting pots, covered with soil and cultivated in a greenhouse under controlled growth conditions. 2 to 3 weeks after sowing, the test plants were treated at the one-leaf stage. The compounds of the invention, formulated in the form of wettable powders (WP) or as emulsion concentrates (EC), were then sprayed onto the green parts of the plants as aqueous suspension or emulsion with addition of 0.5% additive at a water application rate of 600 l/ha (converted). After the test plants had been kept in the greenhouse under optimum growth conditions for about 3 weeks, the activity of the preparations was rated visually in comparison to untreated controls. For example, 100% activity=the plants have died, 0% activity=like control plants.
(§6) Tables B1 to B11 below show the effects of selected compounds of the general formula (I) according to Table 1 on various harmful plants and an application rate corresponding to 80 g/ha, which were obtained by the experimental procedure mentioned above.

Digitaria sanguinalis = experiment: Pre-emergence herbicide efficacy at 320 g/ha, DIGSA; conditions: scored visually after about 3 weeks vs untreated controls, 100% = plants have died
Excerpt: as §1
(§7) Seeds of mono- and dicotyledonous weed plants were placed in plastic pots in sandy loam soil (doubly sown with one species each of mono- or dicotyledonous weed plants per pot) and covered with soil. The compounds of the invention, formulated in the form of wettable powders (WP) or as emulsion concentrates (EC), were then applied to the surface of the covering soil as aqueous suspension or emulsion with addition of 0.5% additive at a water application rate of 600 litres per hectare (converted). After the treatment, the pots were placed in a greenhouse and kept under good growth conditions for the test plants. After about 3 weeks, the efficacy of the preparations was scored visually in comparison with untreated controls as percentages.
as §3
(§8) Tables C1 to C12 below show the effects of selected compounds of the general formula (I) according to Table 1 on various harmful plants and at an application rate corresponding to 320 g/ha, which were obtained by the trial procedure specified above.

Veronica persica [4] = experiment: Post-emergence herbicidal efficacy at 320 g/ha, VERPE; conditions: rated visually after about 3 weeks vs untreated controls, 100% = plants have died
Excerpt: as §1, §2, §3, §4

Veronica persica [5] = experiment: Post-emergence herbicidal efficacy at 80 g/ha, VERPE; conditions: rated visually after about 3 weeks vs untreated controls, 100% = plants have died
Excerpt: as §1, §5, §6

Setaria viridis = experiment: Pre-emergence herbicide efficacy at 320 g/ha, SETVI; conditions: scored visually after about 3 weeks vs untreated controls, 100% = plants have died
Excerpt: as §1, §7, §3, §8

Veronica persica [6] = experiment: Pre-emergence herbicide efficacy at 320 g/ha, VERPE; conditions: scored visually after about 3 weeks vs untreated controls, 100% = plants have died
Excerpt: as §1, §7, §3, §8

Kochia scoparia [7] = experiment: Pre-emergence herbicide efficacy at 320 g/ha, KCHSC; conditions: scored visually after about 3 weeks vs untreated controls, 100% = plants have died
Excerpt: as §1, §7, §3, §8

Amaranthus retroflexus [8] = experiment: Pre-emergence herbicide efficacy at 320 g/ha, AMARE; conditions: scored visually after about 3 weeks vs untreated controls, 100% = plants have died
Excerpt: as §1, §7, §3, §8

Stellaria media [9] = experiment: Post-emergence herbicidal efficacy at 320 g/ha, STEME; conditions: rated visually after about 3 weeks vs untreated controls, 100% = plants have died
Excerpt: as §1, §2, §3, §4

Abutilon theophrasti = experiment: Post-emergence herbicidal efficacy at 320 g/ha, ABUTH; conditions: rated visually after about 3 weeks vs untreated controls, 100% = plants have died
Excerpt: as §1, §2, §3, §4

Stellaria media [10] = experiment: Pre-emergence herbicide efficacy at 320 g/ha, STEME; conditions: scored visually after about 3 weeks vs untreated controls, 100% = plants have died
Excerpt: as §1, §7, §3, §8

SMILES | Post-emergence efficacy at 320 g/ha against KCHSC in % (Kochia scoparia [1]) [%] | Post-emergence efficacy at 320 g/ha against AMARE in % (Amaranthus retroflexus [2]) [%] | Post-emergence efficacy at 320 g/ha against VERPE in % (Veronica persica [4]) [%] | Pre-emergence efficacy at 320 g/ha against AMARE in % (Amaranthus retroflexus [8]) [%] | also measured
N#Cc1c(Cl)ccc(Nc2ncc(Cl)cn2)c1-n1cc(C(F)(F)F)cn1 [Example 1-43] | 100 | 100 | – | – | Post-emergence efficacy at 80 g/ha against AMARE in % (Amaranthus retroflexus [3]): 90%
FC(F)(F)CCCSc1ccccc1Nc1ncc(Cl)cn1 [Example 1-4] | – | 90 | – | – | –
O=S(=O)(CCC(F)(F)F)Oc1c(F)cccc1Nc1ncc(F)cn1 [Example 1-17] | – | 90 | – | – | –
Cc1ccc(Nc2ncc(F)cn2)c(-n2cc(C(F)(F)F)cn2)c1C#N [Example 1-46] | – | 90 | 90 | – | Pre-emergence efficacy at 320 g/ha against DIGSA in % (Digitaria sanguinalis): 90%
FC(F)c1cc(-c2c(Cl)cccc2Nc2ccc(Cl)cn2)on1 [Example 1-74] | – | – | – | – | Post-emergence efficacy at 80 g/ha against VERPE in % (Veronica persica [5]): 80%; Post-emergence efficacy at 80 g/ha against AMARE in % (Amaranthus retroflexus [3]): 80%
N#Cc1cccc(Nc2ncc(Cl)cn2)c1-n1cc(Cl)cn1 [Example 1-72] | 90 | 100 | 90 | 100 | Pre-emergence efficacy at 320 g/ha against DIGSA in % (Digitaria sanguinalis): 90%; Pre-emergence efficacy at 320 g/ha against SETVI in % (Setaria viridis): 90%; Pre-emergence efficacy at 320 g/ha against VERPE in % (Veronica persica [6]): 90%; Pre-emergence efficacy at 320 g/ha against KCHSC in % (Kochia scoparia [7]): 90%
Fc1cc(Cl)cnc1Nc1cccc(F)c1-c1cc(C(F)F)no1 [Example 1-57] | 90 | – | – | – | –
O=S(=O)(CCC(F)(F)F)Oc1c(F)cccc1Nc1ncc(Cl)cn1 [Example 1-16] | – | – | 90 | 90 | –
Fc1cnc(Nc2ccccc2SCCCC(F)(F)F)nc1 [Example 1-7] | 90 | 100 | 100 | 90 | Post-emergence efficacy at 320 g/ha against STEME in % (Stellaria media [9]): 90%; Post-emergence efficacy at 320 g/ha against ABUTH in % (Abutilon theophrasti): 90%
N#Cc1cccc(Nc2ncc(Cl)cc2F)c1-n1cc(C(F)(F)F)cn1 [Example 1-54] | 90 | 100 | 100 | – | –
Cc1ccc(Nc2ncc(Cl)cn2)c(-n2cc(C(F)(F)F)cn2)c1C#N [Example 1-45] | – | – | – | – | Pre-emergence efficacy at 320 g/ha against STEME in % (Stellaria media [10]): 100%
FC(F)(F)c1cnn(-c2ccccc2Nc2ncc(Cl)cn2)c1 [Example 1-78] | – | – | 90 | 100 | Pre-emergence efficacy at 320 g/ha against SETVI in % (Setaria viridis): 90%; Post-emergence efficacy at 320 g/ha against STEME in % (Stellaria media [9]): 90%
N#Cc1cc(Cl)cnc1Nc1cccc(C#N)c1-n1cc(C(F)(F)F)cn1 [Example 1-55] | 90 | 100 | 100 | 100 | –
N#Cc1cccc(Nc2ncc(C(F)(F)F)cn2)c1-n1cc(C(F)(F)F)cn1 [Example 1-41] | – | – | 90 | – | –
O=S(=O)(CCCC(F)(F)F)Oc1c(F)cccc1Nc1ncc(F)cn1 [Example 1-15] | – | 90 | 90 | – | –
O=S(=O)(CCCC(F)(F)F)Oc1c(F)cccc1Nc1ncc(Cl)cn1 [Example 1-14] | – | 90 | 90 | 90 | –
